# Results: PubChem BioAssay (NCI)
#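 Following 48 hours of exposure in 96-well plates, responses at five concentrations were used to interpolate endpoints linearly. TGI is the concentration that stops growth completely.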
# Experiments:
# Experiment in all cases: DTP human tumour cell line panel, 48 h
# [1] = system: SK-MEL-2 melanoma
# [2] = system: KM12 colon
# [3] = system: NCI/ADR-RES ovarian
# [4] = system: HOP-92 NSCLC
# [5] = system: SW-620 colon
# [6] = system: M14 melanoma
# [7] = system: SR leukemia
# [8] = system: HL-60(TB) leukemia
# [9] = system: HS 578T breast
# [10] = system: HCT-116 colon
# [11] = system: CCRF-CEM leukemia
# [12] = system: PC-3 prostate
# [13] = system: SF-539 CNS
# [14] = system: LOX IMVI melanoma
# [15] = system: K-562 leukemia
# [16] = system: MDA-N
# [17] = system: MALME-3M melanoma
# [18] = system: EKVX NSCLC
# [19] = system: SN12C renal
# [20] = system: HOP-62 NSCLC
# [21] = system: COLO 205 colon
# [22] = system: MCF7 breast
# [23] = system: NCI-H226 lung
# [24] = system: CAKI-1 renal
# [25] = system: SF-295 CNS
# [26] = system: TK-10 renal
# [27] = system: OVCAR-5 ovarian
# [28] = system: SNB-19 CNS
# [29] = system: RXF 393 renal
# [30] = system: UACC-62 melanoma
# [31] = system: SNB-75 CNS
# [32] = system: ACHN renal
# [33] = system: MDA-MB-231 breast
# [34] = system: MOLT-4 leukemia
# [35] = system: U251 CNS
# [36] = system: RPMI-8226 leukemia
# [37] = system: NCI-H522 lung
# [38] = system: 786-0 renal
# [39] = system: OVCAR-8 ovarian
# [40] = system: IGROV1 ovarian
# [41] = system: HCC-2998 colon
# [42] = system: OVCAR-3 ovarian
# [43] = system: SK-OV-3 ovarian
# [44] = system: A549 NSCLC
# [45] = system: MDA-MB-435
# [46] = system: NCI-H460 lung
# [47] = system: OVCAR-4 ovarian
# [48] = system: BT-549 breast
# [49] = system: SK-MEL-5 melanoma
# [50] = system: SK-MEL-28 melanoma
# [51] = system: DU-145 prostate
# [52] = system: HT29 colon
# [53] = system: HCT-15 colon
# [54] = system: A498 renal
# [55] = system: UO-31 renal
# [56] = system: T-47D breast
# [57] = system: NCI-H23 lung
# [58] = system: SF-268 CNS
# [59] = system: UACC-257 melanoma
smiles,measurement,setting,value
COP(=O)(OC)/C(=C/c1c[nH]c2ccccc12)C(=O)O,TGI,[1],> 100 µM
same,TGI,[2],> 100 µM
same,TGI,[3],> 100 µM
same,TGI,[4],> 100 µM
same,TGI,[5],> 100 µM
same,TGI,[6],> 100 µM
same,TGI,[7],> 100 µM
same,TGI,[8],> 100 µM
same,TGI,[9],> 100 µM
same,TGI,[10],> 100 µM
same,TGI,[11],> 100 µM
same,TGI,[12],> 100 µM
same,TGI,[13],> 100 µM
same,TGI,[14],> 100 µM
same,TGI,[15],> 100 µM
same,TGI,[16],> 100 µM
same,TGI,[17],> 100 µM
same,TGI,[18],> 100 µM
same,TGI,[19],> 100 µM
same,TGI,[20],> 100 µM
same,TGI,[21],> 100 µM
same,TGI,[22],> 100 µM
same,TGI,[23],> 100 µM
same,TGI,[24],> 100 µM
same,TGI,[25],> 100 µM
same,TGI,[26],> 100 µM
same,TGI,[27],> 100 µM
same,TGI,[28],> 100 µM
same,TGI,[29],> 100 µM
same,TGI,[30],> 100 µM
same,TGI,[31],> 100 µM
same,TGI,[32],> 100 µM
same,TGI,[33],> 100 µM
same,TGI,[34],> 100 µM
same,TGI,[35],> 100 µM
same,TGI,[36],> 100 µM
same,TGI,[37],> 100 µM
same,TGI,[38],> 100 µM
same,TGI,[39],> 100 µM
same,TGI,[40],> 100 µM
same,TGI,[41],> 100 µM
same,TGI,[42],> 100 µM
same,TGI,[43],> 100 µM
same,TGI,[44],> 100 µM
same,TGI,[45],> 100 µM
same,TGI,[46],> 100 µM
same,TGI,[47],> 100 µM
same,TGI,[48],> 100 µM
same,TGI,[49],> 100 µM
same,TGI,[50],> 100 µM
same,TGI,[51],> 100 µM
same,TGI,[52],> 100 µM
same,TGI,[53],> 100 µM
same,TGI,[54],> 100 µM
same,TGI,[55],> 100 µM
same,TGI,[56],> 100 µM
same,TGI,[57],> 100 µM
Cc1ccc([N+](=O)[O-])cc1S(=O)(=O)Nc1ccc(C(=O)/C=C/c2cccs2)cc1,TGI,[1],41.8 µM
same,TGI,[2],32.5 µM
same,TGI,[3],59.3 µM
same,TGI,[4],> 100 µM
same,TGI,[5],50.1 µM
same,TGI,[6],45.3 µM
same,TGI,[7],68.9 µM
same,TGI,[8],62.9 µM
same,TGI,[9],> 100 µM
same,TGI,[10],35.8 µM
same,TGI,[11],> 100 µM
same,TGI,[12],43.8 µM
same,TGI,[13],> 100 µM
same,TGI,[14],45.2 µM
same,TGI,[15],> 100 µM
same,TGI,[16],73 µM
same,TGI,[17],> 100 µM
same,TGI,[18],51.7 µM
same,TGI,[19],74.8 µM
same,TGI,[20],48 µM
same,TGI,[21],95.9 µM
same,TGI,[22],39.2 µM
same,TGI,[23],71.5 µM
same,TGI,[24],38.8 µM
same,TGI,[25],> 100 µM
same,TGI,[26],> 100 µM
same,TGI,[27],> 100 µM
same,TGI,[28],55.9 µM
same,TGI,[58],> 100 µM
same,TGI,[29],32.9 µM
same,TGI,[30],32.1 µM
same,TGI,[31],36.9 µM
same,TGI,[32],87.6 µM
same,TGI,[33],31.1 µM
same,TGI,[34],64.1 µM
same,TGI,[36],> 100 µM
same,TGI,[37],50.8 µM
same,TGI,[38],37.4 µM
same,TGI,[39],> 100 µM
same,TGI,[40],> 100 µM
same,TGI,[41],34.6 µM
same,TGI,[42],39.2 µM
same,TGI,[43],> 100 µM
same,TGI,[44],> 100 µM
same,TGI,[45],32.7 µM
same,TGI,[59],46.6 µM
same,TGI,[46],> 100 µM
same,TGI,[47],54.3 µM
same,TGI,[48],40.1 µM
same,TGI,[49],33.1 µM
same,TGI,[50],58.7 µM
same,TGI,[51],54.2 µM
same,TGI,[52],41.6 µM
same,TGI,[53],64.3 µM
same,TGI,[54],45.1 µM
same,TGI,[55],40.4 µM
same,TGI,[56],91.7 µM
same,TGI,[57],46.1 µM
Cc1ccc([N+](=O)[O-])cc1S(=O)(=O)Nc1ccc(C2=NN(C(=O)c3ccccc3)C(c3ccccc3)C2)cc1 (stereo unspecified),TGI,[1],38.7 µM
same,TGI,[2],> 100 µM
same,TGI,[3],> 100 µM
same,TGI,[4],62.9 µM
same,TGI,[5],> 100 µM
same,TGI,[6],> 100 µM
same,TGI,[7],> 100 µM
same,TGI,[8],81.8 µM
same,TGI,[9],> 100 µM
same,TGI,[10],> 100 µM
same,TGI,[11],> 100 µM
same,TGI,[12],> 100 µM
same,TGI,[13],55.2 µM
same,TGI,[14],> 100 µM
same,TGI,[15],> 100 µM
same,TGI,[16],67.4 µM
same,TGI,[17],66.6 µM
same,TGI,[18],59.7 µM
same,TGI,[19],63.1 µM
same,TGI,[20],72 µM
same,TGI,[21],33.9 µM
same,TGI,[22],75.7 µM
same,TGI,[23],72.2 µM
same,TGI,[24],> 100 µM
same,TGI,[25],> 100 µM
same,TGI,[26],68.8 µM
same,TGI,[27],> 100 µM
same,TGI,[28],> 100 µM
same,TGI,[58],> 100 µM
same,TGI,[29],57.3 µM
same,TGI,[31],49.9 µM
same,TGI,[32],93.6 µM
same,TGI,[33],46.3 µM
same,TGI,[34],> 100 µM
same,TGI,[35],> 100 µM
same,TGI,[36],> 100 µM
same,TGI,[37],58.2 µM
same,TGI,[38],48.2 µM
same,TGI,[39],> 100 µM
same,TGI,[40],95.2 µM
same,TGI,[42],49 µM
same,TGI,[43],73.7 µM
same,TGI,[44],> 100 µM
same,TGI,[45],> 100 µM
same,TGI,[59],64.7 µM
same,TGI,[47],> 100 µM
same,TGI,[48],96.9 µM
same,TGI,[49],30.4 µM
same,TGI,[50],> 100 µM
same,TGI,[51],> 100 µM
same,TGI,[52],> 100 µM
same,TGI,[53],> 100 µM
same,TGI,[54],51.3 µM
same,TGI,[55],> 100 µM
same,TGI,[56],97.5 µM
same,TGI,[57],68.2 µM
